Several values for one entry are separate records, joined by “and”; a condition that tells them apart may be missing. Equal values may be shown once. Inconclusive results and toxic doses are left out. The calls were made as follows: active = survival T/C of 150% or more; inactive = T/C below 125% in these data. Positions of bridges follow the written chain, without caps; N, C: chain ends. Residues, ends and D or L forms follow the SMILES beside them.
Test system: CD2F1 mice, L1210 leukemia ip, survival T/C
Assay: NCI In Vivo Anticancer Drug Screen. Data for tumor model L1210 Leukemia (intraperitoneal) in CD2F1 (CDF1) mice
Conditions: higher = longer survival
Method in brief: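 Compound-dosed mice with transplantable tumor versus matched vehicle controls; endpoint ratio T/C reported.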

[1] = endpoint: mean survival time, dose: 100.0 mg/kg/injection, schedule: Q01DX009 (ip), vehicle: saline with Tween-80
[2] = endpoint: mean survival time, dose: 200.0 mg/kg/injection, schedule: Q01DX009 (ip), vehicle: saline with Tween-80
[3] = endpoint: mean survival time, dose: 400.0 mg/kg/injection, schedule: Q01DX009 (ip), vehicle: saline with Tween-80
[4] = endpoint: mean survival time, dose: 100.0 mg/kg/injection, schedule: Q04DX003 (ip), vehicle: saline with Tween-80
[5] = endpoint: mean survival time, dose: 200.0 mg/kg/injection, schedule: Q04DX003 (ip), vehicle: saline with Tween-80
[6] = endpoint: mean survival time, dose: 400.0 mg/kg/injection, schedule: Q04DX003 (ip), vehicle: saline with Tween-80
[7] = endpoint: mean survival time, dose: 100.0 mg/kg/injection, schedule: Q01DX009 (ip), vehicle: saline
[8] = endpoint: mean survival time, dose: 200.0 mg/kg/injection, schedule: Q01DX009 (ip), vehicle: saline
[9] = endpoint: mean survival time, dose: 50.0 mg/kg/injection, schedule: Q01DX009 (ip), vehicle: saline with Tween-80

Measured: T/C

Nc1ccc(NC(=O)Nc2ccccc2)cc1
inactive: endpoint: mean survival time, dose: 100.0 mg/kg/injection, schedule: Q01DX001 (ip), vehicle: Klucel (hydroxypropylcellulose) (HPC) 88 % of control | endpoint: mean survival time, dose: 200.0 mg/kg/injection, schedule: Q01DX001 (ip), vehicle: Klucel (hydroxypropylcellulose) (HPC) 96 % of control | endpoint: mean survival time, dose: 400.0 mg/kg/injection, schedule: Q01DX001 (ip), vehicle: Klucel (hydroxypropylcellulose) (HPC) 96 % of control

NC(=S=O)C(N)=S=O
inactive: endpoint: median survival time, dose: 50.0 mg/kg/injection, schedule: Q01DX005 (ip), vehicle: saline with Tween-80 103 % of control | endpoint: median survival time, dose: 100.0 mg/kg/injection, schedule: Q01DX005 (ip), vehicle: saline with Tween-80 100 % of control | endpoint: median survival time, dose: 200.0 mg/kg/injection, schedule: Q01DX005 (ip), vehicle: saline with Tween-80 111 % of control | endpoint: median survival time, dose: 400.0 mg/kg/injection, schedule: Q01DX005 (ip), vehicle: saline with Tween-80 107 % of control

O=P(O)(c1cc(Cl)cc(Cl)c1)c1cc(Cl)cc(Cl)c1
inactive: endpoint: mean survival time, dose: 18.8 mg/kg/injection, schedule: Q04DX003 (ip), vehicle: saline 100 % of control | endpoint: mean survival time, dose: 37.5 mg/kg/injection, schedule: Q04DX003 (ip), vehicle: saline 100 % of control | endpoint: mean survival time, dose: 75.0 mg/kg/injection, schedule: Q04DX003 (ip), vehicle: saline 102 % of control

CC1(C)OC2C(C#N)OC(n3ccc(=O)[nH]c3=O)C2O1 (stereo not drawn)
inactive: endpoint: median survival time, dose: 21.88 mg/kg/injection, schedule: Q01DX005 (ip), vehicle: Klucel (hydroxypropylcellulose) (HPC) 101 % of control | endpoint: median survival time, dose: 43.75 mg/kg/injection, schedule: Q01DX005 (ip), vehicle: Klucel (hydroxypropylcellulose) (HPC) 102 % of control | endpoint: median survival time, dose: 87.5 mg/kg/injection, schedule: Q01DX005 (ip), vehicle: Klucel (hydroxypropylcellulose) (HPC) 98 % of control | endpoint: median survival time, dose: 175.0 mg/kg/injection, schedule: Q01DX005 (ip), vehicle: Klucel (hydroxypropylcellulose) (HPC) 102 % of control

COc1ccc(N=C(C(=O)c2ccccc2)c2ccccc2)cc1
inactive: endpoint: mean survival time, dose: 100.0 mg/kg/injection, schedule: Q01DX001 (ip), vehicle: saline with Tween-80 95 % of control | endpoint: mean survival time, dose: 200.0 mg/kg/injection, schedule: Q01DX001 (ip), vehicle: saline with Tween-80 93 % of control | endpoint: mean survival time, dose: 400.0 mg/kg/injection, schedule: Q01DX001 (ip), vehicle: saline with Tween-80 100 % of control

OC1(O)CCN(Cc2ccccc2)CC1
inactive: endpoint: mean survival time, dose: 100.0 mg/kg/injection, schedule: Q04DX003 (ip), vehicle: acetone 94 % of control | endpoint: mean survival time, dose: 200.0 mg/kg/injection, schedule: Q04DX003 (ip), vehicle: acetone 96 % of control | endpoint: mean survival time, dose: 400.0 mg/kg/injection, schedule: Q04DX003 (ip), vehicle: acetone 94 % of control

Nc1nc(N)c(N=Nc2ccc(S(=O)(=O)O)cc2)c(N)n1
inactive: [1] 94 % of control | [2] 94 % of control | [3] 98 % of control

O=C(c1ccccc1)c1cccc(C(Br)Br)c1
inactive: [1] 95 % of control | [2] 93 % of control | [3] 101 % of control

S=C(SN1CCCCC1)N1CCCCC1
inactive: endpoint: mean survival time, dose: 50.0 mg/kg/injection, schedule: Q04DX003 (ip), vehicle: other 96 % of control | endpoint: mean survival time, dose: 100.0 mg/kg/injection, schedule: Q04DX003 (ip), vehicle: other 96 % of control | endpoint: mean survival time, dose: 200.0 mg/kg/injection, schedule: Q04DX003 (ip), vehicle: other 91 % of control

CCOC(=O)/C(=C(\[O-])OCC)[n+]1ccccc1
inactive: [4] 97 % of control | [5] 100 % of control | [6] 100 % of control

COc1ccc(/C=C2\N=C(c3ccccc3)OC2=O)cc1OC
inactive: [7] 103 % of control | [8] 98 % of control | endpoint: mean survival time, dose: 400.0 mg/kg/injection, schedule: Q01DX009 (ip), vehicle: saline 98 % of control

Cc1cc2sccc2cn1
inactive: endpoint: mean survival time, dose: 25.0 mg/kg/injection, schedule: Q01DX009 (ip), vehicle: saline with Tween-80 100 % of control | [9] 98 % of control | [1] 98 % of control | [4] 90 % of control

CC(C)(C)C1=CC(=C2C=C(C(C)(C)C)C(=O)C(C(C)(C)C)=C2)C=C(C(C)(C)C)C1=O
inactive: endpoint: mean survival time, dose: 75.0 mg/kg/injection, schedule: Q04DX003 (ip), vehicle: saline with Tween-80 100 % of control | [1] 95 % of control | endpoint: mean survival time, dose: 150.0 mg/kg/injection, schedule: Q04DX003 (ip), vehicle: saline with Tween-80 100 % of control | [2] 91 % of control | endpoint: mean survival time, dose: 300.0 mg/kg/injection, schedule: Q04DX003 (ip), vehicle: saline with Tween-80 89 % of control | [3] 91 % of control

O=C1NC(=S)S/C1=C\c1ccc(Cl)c(Cl)c1
inactive: [4] 106 % of control | [5] 94 % of control | [6] 97 % of control

c1ccc(-c2nn(-c3ccccc3)[n+](-c3ccccc3)n2)cc1
inactive: endpoint: mean survival time, dose: 1.25 mg/kg/injection, schedule: Q01DX009 (ip), vehicle: saline with Tween-80 100 % of control | endpoint: mean survival time, dose: 2.5 mg/kg/injection, schedule: Q01DX009 (ip), vehicle: saline with Tween-80 100 % of control | endpoint: mean survival time, dose: 5.0 mg/kg/injection, schedule: Q01DX009 (ip), vehicle: saline with Tween-80 104 % of control | endpoint: mean survival time, dose: 5.0 mg/kg/injection, schedule: Q04DX003 (ip), vehicle: saline 95 % of control

COc1cc(C(C2=C(O)c3ccccc3C(=O)C2=O)C2=C(O)c3ccccc3C(=O)C2=O)cc(Br)c1O
inactive: endpoint: mean survival time, dose: 100.0 mg/kg/injection, schedule: Q01DX009 (ip), vehicle: alcohol 101 % of control | endpoint: mean survival time, dose: 200.0 mg/kg/injection, schedule: Q01DX009 (ip), vehicle: alcohol 93 % of control

Cc1ccccc1OCC(=O)O
inactive: endpoint: mean survival time, dose: 50.0 mg/kg/injection, schedule: Q01DX009 (ip), vehicle: saline 104 % of control | [7] 101 % of control | [8] 93 % of control

[Au].[NH-]C1CCCCC1[NH-].[NH-]C1CCCCC1[NH-] (stereo not drawn)
inactive: endpoint: mean survival time, dose: 3.13 mg/kg/injection, schedule: Q04DX003 (ip), vehicle: saline 97 % of control | endpoint: mean survival time, dose: 6.25 mg/kg/injection, schedule: Q04DX003 (ip), vehicle: saline 96 % of control | endpoint: mean survival time, dose: 12.5 mg/kg/injection, schedule: Q04DX003 (ip), vehicle: saline 97 % of control | endpoint: mean survival time, dose: 25.0 mg/kg/injection, schedule: Q04DX003 (ip), vehicle: saline 100 % of control

CSc1ncnc2c1c1c(N)ncnc1n2C1OC(CO)C(O)C1O (stereo not drawn)
inactive: endpoint: mean survival time, dose: 12.5 mg/kg/injection, schedule: Q01DX005 (ip), vehicle: other 107 % of control | endpoint: mean survival time, dose: 25.0 mg/kg/injection, schedule: Q01DX005 (ip), vehicle: other 101 % of control | endpoint: mean survival time, dose: 50.0 mg/kg/injection, schedule: Q01DX005 (ip), vehicle: other 95 % of control | endpoint: mean survival time, dose: 100.0 mg/kg/injection, schedule: Q01DX005 (ip), vehicle: other 103 % of control | endpoint: mean survival time, dose: 200.0 mg/kg/injection, schedule: Q01DX005 (ip), vehicle: other 109 % of control

CCCC(O)(CC)C1CCCC1C (stereo not drawn)
inactive: [9] 100 % of control | [1] 95 % of control | [2] 100 % of control

CCOC1CS(=O)(=O)CC(OCC)O1 (stereo not drawn)
inactive: [4] 101 % of control | [5] 109 % of control | [6] 101 % of control

CCC(C)C1NC(=O)C(CC(C)C)NC(=O)C(C(C)C)NC(=O)C2CSSCC(NC1=O)C(=O)N2 (stereo not drawn) (cyclo(CCVLI); disulfide 1-2; configuration not given here)
inactive: endpoint: mean survival time, dose: 31.25 micrograms/kg/injection, schedule: Q01DX009 (ip), vehicle: Klucel (hydroxypropylcellulose) (HPC) 93 % of control | endpoint: mean survival time, dose: 62.5 micrograms/kg/injection, schedule: Q01DX009 (ip), vehicle: Klucel (hydroxypropylcellulose) (HPC) 95 % of control | endpoint: mean survival time, dose: 125.0 micrograms/kg/injection, schedule: Q01DX009 (ip), vehicle: Klucel (hydroxypropylcellulose) (HPC) 98 % of control | endpoint: mean survival time, dose: 250.0 micrograms/kg/injection, schedule: Q01DX009 (ip), vehicle: Klucel (hydroxypropylcellulose) (HPC) 96 % of control | endpoint: mean survival time, dose: 500.0 micrograms/kg/injection, schedule: Q01DX009 (ip), vehicle: Klucel (hydroxypropylcellulose) (HPC) 98 % of control | endpoint: mean survival time, dose: 1000.0 micrograms/kg/injection, schedule: Q01DX009 (ip), vehicle: Klucel (hydroxypropylcellulose) (HPC) 96 % of control

Cc1ccc(S(=O)(=O)C[n+]2ccccc2N)cc1
inactive: endpoint: mean survival time, dose: 25.0 mg/kg/injection, schedule: Q04DX002 (ip), vehicle: saline with Tween-80 102 % of control | endpoint: mean survival time, dose: 50.0 mg/kg/injection, schedule: Q04DX002 (ip), vehicle: saline with Tween-80 95 % of control | endpoint: mean survival time, dose: 100.0 mg/kg/injection, schedule: Q04DX002 (ip), vehicle: saline with Tween-80 93 % of control and 95 % of control

C#CCOCC1CO1 (stereo not drawn)
inactive: endpoint: mean survival time, dose: 75.0 mg/kg/injection, schedule: Q01DX001 (ip), vehicle: saline 95 % of control | endpoint: mean survival time, dose: 150.0 mg/kg/injection, schedule: Q01DX001 (ip), vehicle: saline 87 % of control
